Patent US12071416B2, “Prodrugs of 4-( (1R, 3S)-6-chloro-3-phenyl-2, 3-dihydro-1H-inden-1-yl)-1,2, 2-trimethylpiperazine and 4-( (1R, 3S)-6-chloro-3-(phenyl-D5)-2, 3-dihydro-1H-inden-1-yl)-2, 2-dimethyl-1 (methyl-D3) piperazine” (H. Lundbeck A/S, priority 2018, dated 2024)
Where two headings read alike, the source gives them in different places.

Test: Plasma stability assay
Format: in vitro ADME, human
Description: Frozen human plasma (stored at −80° C.) was thawed in a water bath followed by centrifugation at 3200×g for 5 min to remove debris. The pH value of the supernatant was then measured and adjusted to 7.4±0.1 by adding 1% phosphoric acid or 1 N sodium hydroxide.
For each test compound, 2 microL of dosing solution (50 microM for test compounds and 100 microM for positive control; propantheline bromide) were spiked into 98 microL of blank plasma to achieve a final concentration of 1 microM test compound and 2 microM positive control.
The test compounds and positive control were incubated in duplicate with human plasma (final DMSO concentration <1%) in a water bath at 37° C. at six different time points (0, 0.5, 1, 2, 4 and 6 hr). At each corresponding time point the incubations were terminated by adding appropriate volume of quenching solution to stop the reaction.
Afterwards, the plasma samples were briefly vortexed and subsequently centrifuged at 3200×g for 20 min. The supernatant was transferred into a 96-well plate and diluted with 200 microL of ultrapure water in the ratio of 1:2 prior to LC-MS/MS analysis. The peak area ratios (PAR) of analyte/internal standard was used to semi-quantitatively determine the concentration of test compounds and control compound. The percentage of test compound remaining at the individual time points relative to the 0 minute sample was reported.
In the determination of in vitro elimination constant, ke, of the parent drug and controls, the analyte/internal standard peak area ratios were converted to percentage remaining with the following equation: […]
The percentage formation of metabolite was calculated by the analyte/internal standard peak area ratios versus T0 (absolute) of metabolite drug and converted to percentage.
The half-life (T1/2) of parent drug and control compounds were calculated from a log linear plot of analyte/internal standard peak area ratios versus time (T1/2=0.693/ke).
Compounds 1a2, 1b2, 2a2, and 2b2 were incubated in human plasma as described above and half-lives of 0.5-1.5 h were determined with the formation of 15-35% of 4-((1R,3S)-6-chloro-3-phenyl-2,3-dihydro-1H-inden-1-yl)-1,2,2-trimethylpiperazine and 4-((1R,3S)-6-chloro-3-(phenyl-d5)-2,3-dihydro-1H-inden-1-yl)-2,2-dimethyl-1-(methyl-d3)piperazine, respectively.

[1] = human plasma, pH 7.4, 37° C., 1 microM test compound, 0-6 hr, LC-MS/MS, read-out: half-life (T1/2) in human plasma

half-life at 1 microM [1] [h] | half-life at 1 microM (human, plasma, pH 7.4) [h] | SMILES
0.5 to 1.5 | – | CC(C)(C)C(=O)OC[N@+]1(C)CCN([C@@H]2C[C@@H](c3ccccc3)c3ccc(Cl)cc32)CC1(C)C.[Cl-] (single isomer, unassigned) [Compound 1a2]
– | 0.5 to 1.5 | CC(C)(C)C(=O)OC[N@@+]1(C)CCN([C@@H]2C[C@@H](c3ccccc3)c3ccc(Cl)cc32)CC1(C)C.[Cl-] (single isomer, unassigned) [Compound 1b2]
0.5 to 1.5 | – | [2H]c1c([2H])c([2H])c([C@@H]2C[C@@H](N3CC[N@+](COC(=O)C(C)(C)C)(C([2H])([2H])[2H])C(C)(C)C3)c3cc(Cl)ccc32)c([2H])c1[2H].[Cl-] (single isomer, unassigned) [Compound 2a2]
– | 0.5 to 1.5 | [2H]c1c([2H])c([2H])c([C@@H]2C[C@@H](N3CC[N@@+](COC(=O)C(C)(C)C)(C([2H])([2H])[2H])C(C)(C)C3)c3cc(Cl)ccc32)c([2H])c1[2H].[Cl-] (single isomer, unassigned) [Compound 2b2]
